# Square brackets hold non-standard residues; d marks the D form. Peptide text beside a SMILES is read from it. MeBmt = C/C=C/C[C@@H](C)[C@@H](O)[C@H](NC)C(=O)O; NMeF = CN[C@@H](Cc1ccccc1)C(=O)O; NMeL = CN[C@@H](CC(C)C)C(=O)O; NMeV = CN[C@H](C(=O)O)C(C)C; Abu = CC[C@H](N)C(=O)O; Sar = CNCC(=O)O
# How the values were obtained:
# HeLa-FKBP12 cells = test: Biosensor cell permeability assay, FKBP binding compounds; format: cell-based; details: 72 hrs
# Method: (§1) This protocol utilizes a modified FKBP or cyclophilin destabilizing mutant to determine the bioactivity of FKBP binding compounds or cyclophilin binding compounds in whole cell assay.
# (§2) Plate HeLa-FKBP12 cells (for FKBP binding compounds) or HeLa-Cyclophilin A cells (for cyclophilin binding compounds) and seed overnight at 5 k/well (approximately ˜18 hrs.). Using a multi-channel pipet, take out the old media and add ˜125 ul of new media with compounds. Compounds are diluted using DMEM without Phenol Red, 10% FBS, 1× Sodium Pyruvate, 1× Glutamax. Add 125 ul of media with compound per well. Cells are treated with compounds at concentration: 30, 10, 3.33, 1.11, 0.37, 0.12, 0.04 and 0.013 uM. Time points are taken at 72 hrs and plate read using plate reader with excitation/emission: 575/620.
# (§3) Cell binding/permeability is calculated in fold-change (Total RFU of treated samples/total RFU of DMSO treated samples or total RFU above background (Total RFU minus total RFU of DMSO treated samples).
# FKBP12 [1] = target: T1, FKBP12 (Homo sapiens, UniProt P62942); test: AlphaLISA: inhibition of binding of biotinylated FK506 to FLAG tagged FKBP12; parameters: made in house
# T1 sequence (P62942 whole entry, species assumed): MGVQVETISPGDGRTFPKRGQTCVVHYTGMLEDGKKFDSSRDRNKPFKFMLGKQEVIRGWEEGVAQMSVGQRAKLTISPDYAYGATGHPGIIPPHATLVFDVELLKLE
# Method: This protocol utilizes Perkin Elmers AlphaLISA technology platform to detect FKBP binders by measuring the inhibition of binding of biotinylated FK506 to FLAG tagged FKBP12.
# Add 20 uL of 12.5 nM FKBP-FLAG working stock to each well of the 96-well plate. Add 1 uL of test compound (100% DMSO) to each well of the plate using the Janus MTD head and P20 tips (except control wells). Add 1 uL of DMSO to negative control wells and 1 uL of 50 uM FK506 solution to positive control wells. In the dark, add 20 uL of combined Donor/Acceptor beads to each well. Incubate in the dark for 30 minutes at room temperature. In the dark, add 10 uL of 5 nM biotinylated FK506 working stock to each well. Incubate in the dark for 60 minutes at room temperature. Protect plate from light until reading on Biotek Synergy2 Plate Reader; Alphalisa 96-well protocol (680 excitation/615 emission).
# FKBP12 [2] = target: T1, FKBP12
# Method: This protocol utilizes Surface Plasmon Resonance (SPR) as a method to determine kinetics (KD, Ka, Kd) for the binding of compound (analyte) to immobilized FKBP12 (ligand).
# Experiments are performed at 25° C. Stock solution of 12×HIS tagged FKBP12 is diluted to 100 nM in assay buffer (1% DMSO final). Approximately 500-600 RU of FKBP12 is immobilized on one of two flow cells of an activated NTA chip. The second flow cell is not activated as a reference for non-specific interaction of the analyte to the sensor chip. Various concentrations of compound (1 nM-1 μM range), serially diluted into the same assay buffer (1% DMSO final), are injected onto the FKBP12 surface and reference surface at a flow rate of 10 μl/min. The surface is regenerated between analyte injections with 350 mM EDTA.
# The BiaEvaluation software program is used for data fitting. All data is reference subtracted against both the reference flow cell and a buffer injection. For kinetic analyses, data is locally fit to a 1:1 interaction model.
# Experiments are performed at 25° C. Stock solution of 12×HIS tagged FKBP12 is diluted to 100 nM in assay buffer (1% DMSO final). Approximately 500-600 RU of FKBP12 is immobilized on one of two flow cells of an activated NTA chip. The second flow cell is not activated as a reference for non-specific interaction of the analyte to the sensor chip.
# CEP250 [3] = target: T2, CEP250 (Homo sapiens, UniProt Q9BV73); test: SPR binding of CEP250 (analyte) to immobilized FKBP12-F2 binary complex
# T2 construct: CEP25011.4 (residues 2134-2231) (in-house); made in house
# Method: Experiments are performed at 25° C.
# CEP250 [4] = target: T2, CEP250; test: ITC binding of FKBP12-compound binary complexes to CEP250; details: FKBP12 10 μM + ligand 20 μM, 298 K
# Method: This protocol utilizes Isothermal Titration calorimetry (ITC) to directly measure the heat change associated with binding of FKBP12-F2 and FKBP12-F11 binary complexes to CEP250. Measurement of the heat change allows accurate determination of association constants (Ka), reaction stoichiometry (N), and the change in binding enthalpy (ΔH).
# FKBP12 stock solution is diluted to 10 μM in assay buffer (1% DMSO final). Compound is added to FKBP12 to 20 μM (1% DMSO final), and binary complex is filled into the reaction cell of the ITC device after 5-10 min pre-incubation time. […] A control experiment in the absence of compound is also run to determine the heat associated with operational artifacts and the dilution of titrant as it is injected from the syringe into the reaction cell.
# Data were fitted with the Origin ITC200 software according to the following procedure: • 1) Read raw data • 2) In “mRawITC”: adjust integration peaks and baseline, integrate all peaks • 3) In “Delta H”—data control: remove bad data (injection #1 and other artifacts), subtract straight line (background subtraction) • 4) In “Delta H”—model fitting: select one set of sites model, perform fitting with Levenberg-Marquardt algorithm until Chi Square is not reduced further, finish with “done” (parameters N, Ka and ΔH are calculated based on fitting)
# CEP250 [5] = target: T3, CEP250 (Homo sapiens, UniProt P62942+Q9BV73); test: Crystal structure analysis of FKBP12-compound-CEP250 ternary complexes; details: FKBP12-compound-CEP25011.4 crystal structure
# T3 construct: CEP25011.4 (residues 2134-2231) (in-house); made in house
# T3 sequence (Q9BV73 2134-2231): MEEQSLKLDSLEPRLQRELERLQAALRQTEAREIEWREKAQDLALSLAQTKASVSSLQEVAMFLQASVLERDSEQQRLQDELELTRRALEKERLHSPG
# T3 sequence (P62942 whole entry, the tested form may be a part): as the sequence (P62942 whole entry, species assumed) above
# Source text: As used herein, the term “buried surface area” refers to the surface area of a protein or a complex that is not exposed to solvent. Buried surface area may be determined by methods known in the art including by calculating inaccessibility to solvent. Inaccessibility to solvent may be calculated computationally with a rolling probe of 1.4 A, using a program such as PDBePISA release version 1.48 (http://www.ebi.ac.uk/pdbe/pisa/).
# This protocol describes the crystallization and structure determination method for structures of FKBP12-Compound 2-CEP250 and FKBP12-F11-CEP250 ternary complexes.
# A 3:1 molar excess of FKBP12-F2 or FKBP12-F11 binary complex is added to CEP25011.4 and incubated at 4° C. overnight to complete ternary complex formation. Pure ternary complex is isolated by gel filtration purification on a Superdex 200 column in 12.5 mM HEPES pH 7.4, 75 mM NaCl. Purified complex (at 10-20 mg/ml) is subjected to crystallization at 22° C. using sitting drop vapor diffusion. FKBP12-F2-CEP250 crystals grow in a well solution containing 0.2 M sodium malonate, 0.1 M HEPES 7.0, 21% PEG 3350. FKBP12-F11-CEP250 crystals grow in a well solution containing 0.1 M Tris pH 8.5, 0.2 M trimethylamine N-oxide, 22-24% PEG2000 MME. For data collection crystals are transferred to a solution containing mother liquor supplemented with 20-25% glycerol, and then frozen in liquid nitrogen. Diffraction datasets are collected at the Advanced Photon Source (APS) and processed with the HKL program. Molecular replacement solutions are obtained using the program PHASER in the CCP4 suite, using the published structure of FKBP12 (PDB-ID 1FKD) as a search model. Subsequent model building and refinement are performed according to standard protocols with the software packages CCP4 and COOT.
# HeLa-Cyclophilin A cells = test: Biosensor cell permeability assay, cyclophilin binding compounds; format: cell-based; details: 72 hrs
# Method: as §1
# as §2, with “well.” for “well. Cells are treated with compounds at concentration: 30, 10, 3.33, 1.11, 0.37, 0.12, 0.04 and 0.013 uM. Time points are taken at 72 hrs and plate read using plate reader with excitation/emission: 575/620.”
# as §3
# [6] = FKBP12/F2 complex to CEP25011.4 (residues 2134-2231)
# [7] = FKBP12/F2 complex to CEP25029.2 (residues 1982-2231)
SMILES,IC50 (HeLa-FKBP12 cells) [nM],IC50 (FKBP12 [1]) [nM],Kd (FKBP12 [2]) [nM],also measured
C/C1=C\CC2OC(O)(C(=O)C(=O)N3CCCCC3C(=O)OC(C(C)CC3CCC(O)C(O)C3)CCC/C=C/C1)C(C)CC2C (stereo not shown) [F17],< 1000,0.26,0.2,–
"CC[C@H](Cc1ccccc1)[C@@H]1/C=C/C/C=C/C[C@@H](C)[C@H](O)[C@@H](C)[C@@H]2CC[C@@H](C)C(=O)C(O)(O2)C(=O)N2CCCC[C@H]2C(=O)O1 [F2, (2S)-1-((4R,7S)-7-((2R,3S,4R,6E,9E,11R,12R)-12-benzyl-3,11-dihydroxy-4-methyltetradeca-6,9-dien-2-yl)-2-hydroxy-4-methyl-3-oxooxepane-2-carbonyl)piperidine-2-carboxylic acid C-11 lactone]",–,–,–,dissociation rate constant (koff) (CEP250 [3]; [6]): 3.09×10^−3 1/S; dissociation rate constant (koff) (CEP250 [3]; [7]): 9.25×10^−5 1/S; Kd (CEP250 [3]; [6]): 5.4 nM; Kd (CEP250 [3]; [7]): 0.29 nM; ΔG (CEP250 [4]; CEP25011.4 68 μM): −40.75 kJ*mol−mol−1; ΔH (CEP250 [4]; CEP25011.4 68 μM): −49.37 kJ*mol−mol−1; −T*ΔS (CEP250 [4]; CEP25011.4 68 μM): 8.62 kJ*mol−mol−1; ΔG (CEP250 [4]; CEP25029.4 118 μM): −38.41 kJ*mol−mol−1; ΔH (CEP250 [4]; CEP25029.4 118 μM): −52.21 kJ*mol−mol−1; −T*ΔS (CEP250 [4]; CEP25029.4 118 μM): 13.80 kJ*mol−mol−1
COC1CC(/C=C(C)/C=C(\C)C2CC(O)C/C=C(C)/C=C/C(=O)C/C=C/CC(C)C3OC(O)(CC(=O)N4CCCCC4C(=O)O2)C(C)CC3C)C=CC1O (stereo not shown) [F16],> 1000,67.5,290,–
COC1C=C(/C=C/C2OC(=O)C3CCCCN3C(=O)C3(O)OC(CCC(C)C3=O)C(C)C3CC4OC(CC(O)C2C)(O3)C(C)CC4C)CCC1O (stereo not shown) [F7],–,26,120,–
CC1=C\CC(O)CC(/C(C)=C/C(C)=C/C2C=CC(O)C(O)C2)OC(=O)C2CCCCN2C(=O)CC2(O)OC(C(C)C/C=C/CC(O)\C=C\1)C(C)CC2C (stereo not shown) [F6],< 1000,60,141,–
C/C1=C\C2=CC(O)C(C=C2)OC(=O)C2CCCCN2C(=O)C(=O)C2(O)OC(CCC2C)C(C)C(O)/C=C/C(C)CCC(O)/C(C)=C/C(C)C1 (stereo not shown) [F12],> 1000,36.3,21.2,–
COC1CC(/C=C(C)/C=C(\C)C2CC(O)C/C=C(C)/C=C/C(O)C/C=C/CC(C)C3OC(O)(CC(=O)N4CCCCC4C(=O)O2)C(C)CC3C)C=CC1O (stereo not shown) [F13],> 1000,33.6,106,–
CCC1/C=C(\C)C(O)CCC(C)/C=C/C(O)C(C)C2CCC(C)C(O)(O2)C(=O)C(=O)N2CCCCC2C(=O)OC2C=CC(=CC2O)/C=C(\C)C1 (stereo not shown) [F10],> 1000,21.1,17.2,–
COC1CC(CC(C)C2CCC/C=C/C/C(C)=C/CC3OC(O)(C(=O)C(=O)N4CCCCC4C(=O)O2)C(C)CC3C)CCC1O (stereo not shown) [F19],< 1000,0.22,–,–
"CC[C@H](Cc1ccccc1)[C@@H]1CCCCCC[C@@H](C)[C@H](O)[C@@H](C)[C@@H]2CC[C@@H](C)C(=O)C(O)(O2)C(=O)N2CCCCC2C(=O)O1 (stereo partly drawn) [F11, (2S)-1-((4R,7S)-7-((2R,3S,4R,11S,12R)-12-benzyl-3,11-dihydroxy-4-methyltetradecan-2-yl)-2-hydroxy-4-methyl-3-oxooxepane-2-carbonyl)piperidine-2-carboxylic acid C-11 lactone]",–,–,–,ΔG (CEP250 [4]; CEP25011.4 68 μM): −40.36 kJ*mol−mol−1; ΔH (CEP250 [4]; CEP25011.4 68 μM): −47.78 kJ*mol−mol−1; −T*ΔS (CEP250 [4]; CEP25011.4 68 μM): 7.41 kJ*mol−mol−1; ΔG (CEP250 [4]; CEP25029.4 118 μM): −36.74 kJ*mol−mol−1; ΔH (CEP250 [4]; CEP25029.4 118 μM): −58.48 kJ*mol−mol−1; −T*ΔS (CEP250 [4]; CEP25029.4 118 μM): 21.73 kJ*mol−mol−1; buried surface area of CEP250 contributed by FKBP12 (CEP250 [5]): 590 Å^2; total buried surface area of CEP250 (CEP250 [5]): 831 Å^2; total buried surface area of the ternary complex (CEP250 [5]): 1648 Å^2; kon (FKBP12 [2]; read-out: Ka): 567000 M⁻¹ s⁻¹
CC(=C\C1C=CC(O)C(O)C1)/C=C(\C)C1CC(O)CC1C(C)(O)/C=C/C(O)C/C=C/CC(C)C1OC(O)(CC(=O)N2CCCCC2C(=O)O)C(C)CC1C (stereo not shown) [F23],> 1000,4690,–,–
C/C=C/C[C@@H](C)[C@@H](O)[C@H]1C(=O)N[C@@H](CC)C(=O)N(C)CC(=O)N(C)[C@@H](Cc2ccccc2)C(=O)N[C@@H](C(C)C)C(=O)N(C)[C@@H](CC(C)C)C(=O)N[C@@H](C)C(=O)N[C@H](C)C(=O)N(C)[C@@H](CC(C)C)C(=O)N(C)[C@@H](CC(C)C)C(=O)N(C)[C@@H](C(C)C)C(=O)N1C [C36] (cyclo([MeBmt][Abu][Sar][NMeF]V[NMeL]A[dA][NMeL][NMeL][NMeV])),–,–,–,IC50 (HeLa-Cyclophilin A cells): < 3000 nM
COC1C(O)CCC(CC(C)C2CCC/C=C/C/C(C)=C/CC3OC(O)(C(=O)C(=O)N4CCCCC4C(=O)O2)C(C)CC3C)C1O (stereo not shown) [F9],< 1000,0.3,0.23,–
CCC(/C=C(\C)C(O)CCC(C)/C=C/C(O)C(C)C1CCC(C)C(O)(C(=O)C(=O)N2CCCCC2C(=O)O)O1)C/C(C)=C/C1=CC(O)C(O)C=C1 (stereo not shown) [F14],> 1000,1800,–,–
COC1C=C(/C=C/C2OC(=O)C3CCCCN3C(=O)C(=O)C3(O)OC(CCC3C)C(C)C3CC4OC(CC(O)C2C)(O3)C(C)CC4C)CCC1O (stereo not shown) [F8],–,10.6,66,–

# Source: US10039839B2, “Compounds that participate in cooperative binding and uses thereof” (Warp Drive Bio, Inc., priority 2015, dated 2018)
